# Measurements published in ChEMBL document CHEMBL1201862, “PubChem BioAssay data set” (2004).
#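 Briefly, cells in 96-well plates were exposed to five compound concentrations for 48 h, and endpoints were estimated by linear interpolation. At the GI50, growth is halved.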 Calls of active or inactive are those of the source. Cut-off read from the data, not from the text of the source: active = GI50 up to about 1.1 µM and inactive = higher.
# What was measured:
# Experiment in all cases: inhibition of tumour cell growth, NCI panel, 48 h
# SN12C = test system: SN12C
# Malme-3M = test system: Malme-3M
# NCI-H460 = test system: NCI-H460
# CAKI-1 = test system: CAKI-1
# BT-549 = test system: BT-549
# HCT-116 = test system: HCT-116
# A549 = test system: A549
# UO-31 = test system: UO-31
# LOX IMVI = test system: LOX IMVI
# CCRF-CEM = test system: CCRF-CEM
# OVCAR-5 = test system: OVCAR-5
# MCF7 = test system: MCF7
# TK-10 = test system: TK-10
# K562 = test system: K562
# HT-29 = test system: HT-29
# MOLT-4 = test system: MOLT-4
# OVCAR-8 = test system: OVCAR-8
# MDA-MB-231 = test system: MDA-MB-231
# HCC 2998 = test system: HCC 2998
# 786-0 = test system: 786-0
Compound,GI50 (SN12C),GI50 (Malme-3M),GI50 (NCI-H460),GI50 (CAKI-1),GI50 (BT-549),GI50 (HCT-116),GI50 (A549),GI50 (UO-31),GI50 (LOX IMVI),GI50 (CCRF-CEM),GI50 (OVCAR-5),GI50 (MCF7),GI50 (TK-10),GI50 (K562),GI50 (HT-29),GI50 (MOLT-4),GI50 (OVCAR-8),GI50 (MDA-MB-231),GI50 (HCC 2998),GI50 (786-0)
N=c1oc2ccccc2cc1-c1nc2ccccc2c(=O)[nH]1,> 100 µM (inactive),60.8 µM (inactive),64.7 µM (inactive),> 100 µM (inactive),23.8 µM (inactive),42.9 µM (inactive),78.3 µM (inactive),27.1 µM (inactive),54.5 µM (inactive),79.4 µM (inactive),> 100 µM (inactive),19.5 µM (inactive),35.3 µM (inactive),> 100 µM (inactive),39.1 µM (inactive),> 100 µM (inactive),60.3 µM (inactive),29.3 µM (inactive),90.2 µM (inactive),31.4 µM (inactive)
CC(C)(C)OC(=O)NC(CSCc1ccc(C(=O)c2ccccc2)cc1)C(=O)O (stereo not given),> 100 µM (inactive),> 100 µM (inactive),> 100 µM (inactive),> 100 µM (inactive),> 100 µM (inactive),> 100 µM (inactive),> 100 µM (inactive),> 100 µM (inactive),> 100 µM (inactive),> 100 µM (inactive),> 100 µM (inactive),> 100 µM (inactive),> 100 µM (inactive),> 100 µM (inactive),> 100 µM (inactive),> 100 µM (inactive),> 100 µM (inactive),> 100 µM (inactive),> 100 µM (inactive),> 100 µM (inactive)
Cc1ccc2nc(C(=O)O)c(=O)[nH]c2c1,> 100 µM (inactive),> 100 µM (inactive),> 100 µM (inactive),> 100 µM (inactive),> 100 µM (inactive),> 100 µM (inactive),> 100 µM (inactive),> 100 µM (inactive),> 100 µM (inactive),> 100 µM (inactive),> 100 µM (inactive),> 100 µM (inactive),> 100 µM (inactive),> 100 µM (inactive),> 100 µM (inactive),> 100 µM (inactive),> 100 µM (inactive),> 100 µM (inactive),> 100 µM (inactive),> 100 µM (inactive)
CC(=O)N1CCN(C23OC4(N5CCN(C(C)=O)CC5)C5C6CC(C7C6C4C72)C53)CC1 (stereo not given),> 100 µM (inactive),> 100 µM (inactive),> 100 µM (inactive),> 100 µM (inactive),> 100 µM (inactive),> 100 µM (inactive),> 100 µM (inactive),> 100 µM (inactive),> 100 µM (inactive),> 100 µM (inactive),> 100 µM (inactive),> 100 µM (inactive),> 100 µM (inactive),> 100 µM (inactive),> 100 µM (inactive),> 100 µM (inactive),> 100 µM (inactive),> 100 µM (inactive),> 100 µM (inactive),> 100 µM (inactive)
Cn1cc(S(=O)(=O)NC(=O)Nc2ccc(Cl)cc2)c(=O)c2ccc(Cl)cc21,99.3 µM (inactive),> 100 µM (inactive),> 100 µM (inactive),> 100 µM (inactive),43.8 µM (inactive),84.1 µM (inactive),> 100 µM (inactive),> 100 µM (inactive),> 100 µM (inactive),92.9 µM (inactive),> 100 µM (inactive),> 100 µM (inactive),> 100 µM (inactive),47.1 µM (inactive),> 100 µM (inactive),85.5 µM (inactive),> 100 µM (inactive),> 100 µM (inactive),85.3 µM (inactive),> 100 µM (inactive)
O=[N+]([O-])c1cccc2nc3ccccc3c(NCCCN3CCCCC3)c12,< 0.0105 µM (active),0.0164 µM (active),< 0.01 µM (active),0.0312 µM (active),0.0286 µM (active),< 0.01 µM (active),< 0.01 µM (active),0.0237 µM (active),0.0194 µM (active),0.024 µM (active),0.0208 µM (active),< 0.01 µM (active),0.0256 µM (active),< 0.0123 µM (active),< 0.01 µM (active),< 0.01 µM (active),0.0132 µM (active),0.016 µM (active),< 0.01 µM (active),< 0.01 µM (active)
COc1cc(-c2oc3c(OC)c(O)cc(O)c3c(=O)c2OC)ccc1O,13.1 µM (inactive),> 47.8 µM (inactive),6.95 µM (inactive),3.13 µM (inactive),5.18 µM (inactive),6.4 µM (inactive),7.29 µM (inactive),3.08 µM (inactive),4.12 µM (inactive),3.12 µM (inactive),22.3 µM (inactive),19.7 µM (inactive),12.4 µM (inactive),5.12 µM (inactive),37.4 µM (inactive),4.92 µM (inactive),8.17 µM (inactive),7.76 µM (inactive),10.9 µM (inactive),16.9 µM (inactive)
C=CCNC(=O)NC(=O)CSC1=NC(=O)C2(NN1)c1ccccc1-c1ccccc12,> 10 µM (inactive),> 10 µM (inactive),> 10 µM (inactive),> 10 µM (inactive),> 10 µM (inactive),> 10 µM (inactive),> 10 µM (inactive),9.62 µM (inactive),> 10 µM (inactive),> 10 µM (inactive),> 10 µM (inactive),> 10 µM (inactive),> 10 µM (inactive),> 10 µM (inactive),> 10 µM (inactive),> 10 µM (inactive),> 10 µM (inactive),> 10 µM (inactive),> 10 µM (inactive),> 10 µM (inactive)
CC(=O)O[C@H]1CC[C@@]2(C)C(=C[C@H](c3ccc(O)cc3)[C@H]3[C@@H]4CC[C@H](OC(C)=O)[C@@]4(C)CC[C@@H]32)C1,23 µM (inactive),17.9 µM (inactive),20.5 µM (inactive),18.6 µM (inactive),14.2 µM (inactive),15.8 µM (inactive),16.3 µM (inactive),25.2 µM (inactive),14.1 µM (inactive),21.3 µM (inactive),23.7 µM (inactive),23 µM (inactive),32.3 µM (inactive),12.9 µM (inactive),13.6 µM (inactive),18.4 µM (inactive),16.9 µM (inactive),17.9 µM (inactive),20.5 µM (inactive),19.6 µM (inactive)
c1ccc2c(Nc3ncco3)cccc2c1,> 10 µM (inactive),> 10 µM (inactive),> 10 µM (inactive),> 10 µM (inactive),> 10 µM (inactive),> 10 µM (inactive),> 10 µM (inactive),> 10 µM (inactive),> 10 µM (inactive),> 10 µM (inactive),> 10 µM (inactive),> 10 µM (inactive),> 10 µM (inactive),> 10 µM (inactive),> 10 µM (inactive),> 10 µM (inactive),> 10 µM (inactive),> 10 µM (inactive),> 10 µM (inactive),> 10 µM (inactive)
O=C1c2ccccc2-c2nc(-c3ccncc3)cc3c2c1nc1ccccc13,15.1 µM (inactive),4.27 µM (inactive),10.5 µM (inactive),> 100 µM (inactive),40.1 µM (inactive),6.4 µM (inactive),13.6 µM (inactive),9.71 µM (inactive),14.5 µM (inactive),9.33 µM (inactive),18.7 µM (inactive),16.5 µM (inactive),33.2 µM (inactive),16.1 µM (inactive),24.9 µM (inactive),2.83 µM (inactive),25.2 µM (inactive),> 100 µM (inactive),18.7 µM (inactive),11.1 µM (inactive)
CCCCCCCCCCCCCCCCCCNc1nc(=O)n(C2CC(O)C(COP(=O)(O)O)O2)cc1F (stereo not given),> 95.7 µM (inactive),> 100 µM (inactive),35.5 µM (inactive),15 µM (inactive),> 100 µM (inactive),81.7 µM (inactive),17.4 µM (inactive),31.7 µM (inactive),58.9 µM (inactive),38 µM (inactive),> 100 µM (inactive),16.9 µM (inactive),> 100 µM (inactive),> 100 µM (inactive),> 100 µM (inactive),36 µM (inactive),27.4 µM (inactive),> 100 µM (inactive),15 µM (inactive),45.2 µM (inactive)
CN(CCCCN(C)CCc1ccc(Cl)c(Cl)c1)CCCCN1CCCC1,1.98 µM (inactive),1.91 µM (inactive),1.48 µM (inactive),1.6 µM (inactive),1.87 µM (inactive),1.51 µM (inactive),1.65 µM (inactive),0.509 µM (active),0.912 µM (active),< 0.0235 µM (active),2.36 µM (inactive),1.46 µM (inactive),1.61 µM (inactive),0.877 µM (active),0.494 µM (active),3.08 µM (inactive),2.09 µM (inactive),0.75 µM (active),0.195 µM (active),1.25 µM (inactive)
CCN(CC)CCN(C)c1ccc(CO)c2c1c(=O)c1ccccc1[s+]2[O-] (stereo not given),15.2 µM (inactive),11.9 µM (inactive),4.62 µM (inactive),13.2 µM (inactive),13.8 µM (inactive),1.88 µM (inactive),11.3 µM (inactive),16.3 µM (inactive),1.78 µM (inactive),3.78 µM (inactive),11.4 µM (inactive),9.77 µM (inactive),16.9 µM (inactive),3.83 µM (inactive),2.11 µM (inactive),2.25 µM (inactive),1.8 µM (inactive),2.84 µM (inactive),1.43 µM (inactive),1.71 µM (inactive)
